Results on five compounds are retold here after patent US11427590B2, “Small molecule inhibitors of neutral sphingomyelinase 2 (nSMase2) for the treatment of neurodegenerative diseases” (The Johns Hopkins University, priority 2017, dated 2022).

A value given as a limit tells only on which side of the number the result lay.

For data set [1] the following is noted: background statement on known inhibitor; cited from earlier work.
Data set [2] can be described thus: Phase I metabolic stability in human liver microsomes. The class given is in vitro ADME. Particulars: 37° C. On the procedure: (§1) Phase I metabolic stability in both mouse and human liver microsomes was performed as described previously. Rais et al. Briefly, compounds are spiked in liver microsomes (mouse, human) and incubated in an orbital shaker at 37° C. […] Compound disappearance is monitored over time using LC/MS/MS.
In general terms: Liver microsomes are a subcellular fraction often used to study metabolism.

For a further data set, the system named is rat astrocytes. Put plainly: Inhibition of exosome release from primary astrocytes in vitro. Particulars: 0.3-10 μM, 2 h after treatment, vs DMSO (0.02%). The class given is cell-based. The protocol:
The effect of nSMase2 inhibitors on the manufacturing and release of ceramide rich exosomes from primary astrocytes was investigated as previously described. Dickens, et al. Briefly, rat astrocytes are seeded onto 6-well plates at a density of 20,000 cells/well. Twenty-four hours after seeding, astrocytes are washed with PBS and the medium changed to media without FBS. Absence of FBS mimics a trophic factor withdrawal stimulus causing the release of exosomes via a nSMase2-dependent pathway. Astrocytes are then treated with nSMase2 inhibitors at concentrations in the range 0.03-30 μM. DMSO (0.02%) is used as control. Two hours after treatment, media is collected and centrifuged at 2700 g for 15 min (4° C.). Supernatant is further centrifuged at 10,000 g for 15 min (4° C.) to remove large particles such as apoptotic bodies. Astrocyte-derived extracellular vesicles (EVs) are isolated via ultracentrifugation at 100,000 g for 3 h at 4° C. Fractions containing EV are washed twice with 5 ml PBS and the final pellet resuspended in PBS. This isolation procedure results in the isolation of EVs with a narrow size range and protein markers consistent with exosomes. Dickens, et al. The number of EVs is quantified using ZetaView Nanoparticle Tracker (Particle Metrix GmBH, Meerbusch, Germany) and the corresponding ZetaVeiw software (8.03.04.01). Nanosphere size standard 100 nm (Thermo Scientific) is used to calibrate the instrument prior to sample readings. For each sample 1 mL of the supernatant is injected into the sample-carrier cell and the particle count measured at 5 positions, with 2 cycles of reading per position. Cells are washed with PBS after every sample. Mean concentration of EVs/mL (±SEM) is calculated from 6 replicates. This screening assay is reliable with a Z′=0.75.
Referring now to FIG. 4A and FIG. 4B, the ability of compound 38 and several of its analogs to inhibit exosome release in vitro was evaluated as previously described. […] Two hours after treatment, exosomes were isolated from the media and quantified using ZetaView Nanoparticle Tracker. The mean concentration of exosomes (EVs/mL±SEM) was calculated from 6 replicate experiments (see FIG. 4). […] Baseline exosome release can be variable between experiments; as a result, inhibition is always compared relative to vehicle treatment within the same experiment. Structures of compounds with their corresponding IC50s are provided in the second row of FIG. 4.

Data set [3] can be described thus: Phase I metabolic stability in mouse liver microsomes. The class given is in vitro ADME. Particulars: 37° C. On the procedure:
as §1

A further data set deals with GFAP-GFP mice. The experiment in a line: Inhibition of exosome release in vivo after striatal IL-1β injection. Particulars: mouse. On the procedure:
Striatal injections of IL-1β and exosome measurements are performed as previously described by our group in adult (2-3 month) male GFAP-GFP mice (Jackson Laboratories). Dickens, et al.; McCluskey, et al. Mice are anesthetized with 3% Isoflourane (Baxter) in oxygen (Airgas), and placed in a stereotaxic frame (Stoelting Co.). A small burr hole is drilled in the skull over the left striatum using a dental drill (Fine Scientific Tools). IL1β (0.1 ng/3 μl) is injected (total volume of 3 μl) at the rate 0.5 μl/min via a pulled glass capillary tip diameter <50 μm using the stereotaxic coordinates: A/P+1; M/L-2; -3 D/V. Following infusion, the capillary is held in place for 5 min to allow for solution to diffuse into the tissue. Animals are sacrificed at 2, 12 or 24 h by an overdose of anesthetic, and transcardially perfused with ice-cold saline containing heparin (20 μl per 100 ml, Sigma). Blood is rapidly isolated and flash frozen. […]
GFAP-GFP mice that release green EVs from astrocytes into the systemic circulation were used so that exosome release from astrocytes in plasma can be followed. […] The concentration of immunoprecipitated GFP+ EVs is quantified using ZetaView nanoparticle tracking analysis (Particle Metrix) as described in the cell-based exosome release. […]

In the next data set the test system is alkaline phosphatase. The experiment in a line: Inhibition of related enzyme alkaline phosphatase. Particulars: related enzyme (phosphomonoesterase).
The subject of data set [4] is panel of 44 selected targets.
The target in the next data set is acid sphinghomyelinase (Homo sapiens (Human), UniProt P17405). The experiment in a line: Inhibition of related enzyme acid sphingomyelinase. Particulars: related enzyme (phosphodiesterase). The class given is biochemical.
acid sphinghomyelinase, sequence (P17405 47-631): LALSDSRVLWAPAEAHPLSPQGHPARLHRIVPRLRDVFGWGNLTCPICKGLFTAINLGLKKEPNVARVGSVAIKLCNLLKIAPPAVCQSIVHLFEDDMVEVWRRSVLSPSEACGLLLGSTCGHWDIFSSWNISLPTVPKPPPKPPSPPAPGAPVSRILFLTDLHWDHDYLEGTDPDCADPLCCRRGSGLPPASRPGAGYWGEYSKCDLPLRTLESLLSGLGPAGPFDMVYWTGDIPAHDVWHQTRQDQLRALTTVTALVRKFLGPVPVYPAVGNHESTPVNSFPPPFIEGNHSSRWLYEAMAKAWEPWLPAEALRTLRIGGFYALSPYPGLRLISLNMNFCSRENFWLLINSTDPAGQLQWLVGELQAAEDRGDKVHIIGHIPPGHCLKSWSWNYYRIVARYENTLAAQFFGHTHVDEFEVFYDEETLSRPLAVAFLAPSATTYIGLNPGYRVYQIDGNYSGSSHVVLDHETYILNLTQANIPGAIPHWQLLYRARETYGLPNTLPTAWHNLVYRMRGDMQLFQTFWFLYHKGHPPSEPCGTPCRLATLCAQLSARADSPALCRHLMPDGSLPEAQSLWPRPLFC
Data set [5] in a line: Pharmacokinetics, plasma and brain levels in mice. On the procedure: Blood was obtained via cardiac puncture and brain tissue was dissected at 0.25, 0.5, 1, 2, 4, 6 and 8 h post dose (n=3 per gender and time point). Plasma was harvested from blood by centrifugation. Subsequently, samples were extracted from plasma and brain by a one-step protein precipitation using acetonitrile followed by vortexing for […] and centrifugation (10,000 g for 10 min) as we have described previously. Rais, et al. Once extracted, the samples were reconstituted into a mobile phase and analyzed via LC/MS/MS. Plasma concentrations (nM) as well as tissue concentrations (pmol/g) were determined and plots of mean plasma concentration vs. time were constructed for PK analysis. Non-compartmental-analysis modules in WinNonlin® (version 5.3) were used to assess pharmacokinetic parameters including maximal concentration (Cmax), time to Cmax (Tmax), area under the curve extrapolated to infinity (AUC0-∞) and brain-to-plasma (B/P) ratios.

Experimental for alkaline phosphatase: Phosphorylcholine undergoes dephosphorylation in a reaction catalyzed by alkaline phosphatase (4 U/mL) to produce choline which in turn is oxidized by choline oxidase (0.1 U/mL) to betaine and hydrogen peroxide (H2O2). Hydrogen peroxide is made to react with Amplex red (50 μM) in the presence of horseradish peroxidase (HRP, 1 U/mL) to generate the fluorescent molecule resorufin. Generation of fluorescence is monitored by measuring relative florescence units (RFU) with excitation at 530 nm and emission at 590 nm. Extent of fluorescence is directly proportional to the extent of SM hydrolysis. Substrate stock solution is prepared in 2% Triton X-100 and sonicated for 1 min. Reactions are carried out for 1 h at 37° C. in 100 mM Tris-HCl pH 7.4, 10 mM MgCl2, 0.2% Triton X-100. This assay has been optimized in 384-well format (50 μL total volume per well) under conditions where nSMase2-catalyzed hydrolysis of SM is linear with respect to nSMase2 concentration, time of incubation and SM concentration (FIGS. 3A-3C). The assay has high reliability (Z′=0.8-0.9). It is used for compound screening, IC50 determinations and mode of inhibition studies. IC50 determinations are carried out in duplicate eight-point dose response curves. A counter screen is concomitantly carried out to identify false positives resulting from inhibition of the coupling enzymes. […]

As for `O=C(/C=C/c1ccc(/C=C/C(=O)Nc2ccc(C3=NCCN3)cc2)cc1)Nc1ccc(C2=NCCN2)cc1` [GW4869], in data set [1], the solubility result is “poor solubility”.
Regarding `COc1ccc(-c2c(-c3ccc(C)cc3)nc3c(N4CC[C@@H](NC(C)=O)C4)cc(C)nn23)cc1OC` [compound 62, (R)—N-(1-(3-(3,4-dimethoxyphenyl)-6-methyl-2-(p-tolyl)imidazo[1,2-b]pyridazin-8-yl)pyrrolidin-3-yl)acetamide], in [2], the “Human Liver Microsome (+) NADPH Remaining at 60 min” value turned out to be 28 ± 5%. Also, the “exosome release from astrocytes” value in the data set with rat astrocytes is listed as “decreased the number of exosomes released from astrocytes in a dose dependent manner”. Further, the “Mouse Liver Microsome (+) NADPH % Remaining at 60 min” value in [3] stood at 53 ± 6%.
The like results for `COc1ccc(-c2c(C)nc3c(N4CC[C@@H](NS(=O)(=O)c5ccc(C(F)(F)F)cc5)C4)cc(C)nn23)cc1OC` [compound 30, (R)—N-(1-(3-(3,4-dimethoxyphenyl)-2,6-dimethylimidazo[1,2-b]pyridazin-8-yl)pyrrolidin-3-yl)-4-(trifluoromethyl)benzenesulfonamide] were, in that order, 61 ± 3%, “decreased the number of exosomes released from astrocytes in a dose dependent manner” and 15 ± 5%.
Turning to `COc1ccc(-c2c(C)nc3c(N4CC[C@@H](NC(=O)Oc5ccccc5)C4)cc(C)nn23)cc1OC` [compound 38, Phenyl (R)-(1-(3-(3,4-dimethoxyphenyl)-2,6-dimethylimidazo[1,2-b]pyridazin-8-yl)pyrrolidin-3-yl) carbamate], the “exosomes in plasma after striatal IL-1β injection” value in the data set with GFAP-GFP mice is given as “significantly reduced the increased exosomes”. The “inhibition of alkaline phosphatase” value with alkaline phosphatase is given as “not inhibiting”. Moreover, in data set [2], the “Human Liver Microsome (+) NADPH Remaining at 60 min” value amounted to 103 ± 14%. Also, the “exosome release from astrocytes” value in the data set with rat astrocytes is on record as “decreased the number of exosomes released from astrocytes in a dose dependent manner”. Besides, the “inhibition of positive hits” value in data set [4] (10 μM, all positive hits) was “less than 100%”. Further, the “segregation in potency between off targets and nSMase2” value in data set [4] (off targets vs nSMase2) is not below 20 fold. In addition, at acid sphinghomyelinase, the “inhibition of acid sphinghomyelinase” value is on record as “not inhibiting”. Besides, in [5] (10 mg/kg i.p.), the systemic exposure entry is on record as “high systemic exposures”. Moreover, in data set [5] (10 mg/kg peroral), the brain exposure entry is listed as “high brain exposures” and the plasma exposure entry was “high plasma exposures”.
Take `COc1ccc(-c2c(C)nc3c(N4CCCC4)cc(C)nn23)cc1OC` [compound 44, 3-(3,4-dimethoxyphenyl)-2,6-dimethyl-8-(pyrrolidin-1-yl)imidazo[1,2-b]pyridazine]: the “Human Liver Microsome (+) NADPH Remaining at 60 min” value in data set [2] was found to be 58 ± 4%. The “exosome release from astrocytes” value with rat astrocytes is on record as “decreased the number of exosomes released from astrocytes in a dose dependent manner”. In addition, in [3], the “Mouse Liver Microsome (+) NADPH % Remaining at 60 min” value worked out at 1 ± 0%.
